Results taken from patent US12655116B2, “Substituted isophthalic acid diamides” (Bayer Aktiengesellschaft, priority 2020, dated 2026).

Assays:
AMARE = assay: Post-emergence herbicidal action against AMARE; format: in vivo, Amaranthus retroflexus; conditions: Amaranthus retroflexus, 504 h, visual assessment about 3 weeks after treatment, 100% = plants have died, 0% = like control plants
Method in brief: (§1)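 Percent herbicidal action is rated by eye about 3 weeks after treatment against untreated controls, where 100% means dead plants and 0% means like controls. Plants in sandy loam are sprayed on green parts at the one-leaf stage with aqueous WP or EC preparations at 600 to 800 l/ha plus 0.2% wetting agent.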

STEME = assay: Pre-emergence herbicidal action against STEME; format: in vivo, Stellaria media; conditions: Stellaria media, 504 h; for pest or weed control at 80 g/ha: dosage 80 g/ha; for pest or weed control at 20 g/ha: dosage 20 g/ha
Method in brief: (§2)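 Seeds sown in sandy loam, soil-covered; compound sprayed on soil surface pre-emergence. Application: WP/EC, 600–800 l/ha, 0.2% wetting agent. Readout: visual % damage at 3 weeks.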

ALOMY [1] = assay: Post-emergence herbicidal action against ALOMY; format: in vivo, Alopecurus myosuroides; conditions: Alopecurus myosuroides, 504 h, visual assessment about 3 weeks after treatment vs untreated controls; for pest or weed control at 20 g/ha: dosage 20 g/ha; for pest or weed control at 5 g/ha: dosage 5 g/ha
Method in brief: as §1

LOLRI [2] = assay: Post-emergence herbicidal action against LOLRI; format: in vivo, Lolium rigidum; conditions: Lolium rigidum, 504 h; for pest or weed control at 20 g/ha: dosage 20 g/ha
Method in brief: as §1

LOLRI [3] = assay: Pre-emergence herbicidal action against LOLRI; format: in vivo, Lolium rigidum; conditions: Lolium rigidum, 504 h
Method in brief: as §2

MATIN [4] = assay: Post-emergence herbicidal action against MATIN; format: in vivo, Matricaria inodora; conditions: Tripleurospermum inodorum, 504 h; for pest or weed control at 20 g/ha: dosage 20 g/ha; for pest or weed control at 5 g/ha: dosage 5 g/ha
Method in brief: as §1

HORMU [5] = assay: Pre-emergence herbicidal action against HORMU; format: in vivo, Hordeum murinum; conditions: Hordeum murinum, 504 h, pre-emergence
Method in brief: as §2

ECHCG [6] = assay: Post-emergence herbicidal action against ECHCG; format: in vivo, Echinochloa crus-galli; conditions: Echinochloa crus-galli, 504 h; for pest or weed control at 20 g/ha: dosage 20 g/ha; for pest or weed control at 5 g/ha: dosage 5 g/ha
Method in brief: as §1

POLCO [7] = assay: Pre-emergence herbicidal action against POLCO; format: in vivo, Polygonum convolvulus; conditions: Fallopia convolvulus, 504 h; for pest or weed control at 80 g/ha: dosage 80 g/ha
Method in brief: as §2

HORMU [8] = assay: Post-emergence herbicidal action against HORMU; format: in vivo, Hordeum murinum; conditions: Hordeum murinum, 504 h; for pest or weed control at 20 g/ha: dosage 20 g/ha
Method in brief: as §1

VIOTR [9] = assay: Post-emergence herbicidal action against VIOTR; format: in vivo, Viola tricolor; conditions: Viola tricolor, 504 h
Method in brief: as §1

VERPE [10] = assay: Pre-emergence herbicidal action against VERPE; format: in vivo, Veronica persica; conditions: Veronica persica, 504 h; for pest or weed control at 80 g/ha: dosage 80 g/ha
Method in brief: as §2

ALOMY [11] = assay: Pre-emergence herbicidal action against ALOMY; format: in vivo, Alopecurus myosuroides; conditions: Alopecurus myosuroides, 504 h, pre-emergence; for pest or weed control at 80 g/ha: scored visually after 3 weeks vs untreated controls (100% = plants have died, 0% = like control plants)
Method in brief: as §2

POLCO [12] = assay: Post-emergence herbicidal action against POLCO; format: in vivo, Polygonum convolvulus; conditions: Fallopia convolvulus, 504 h, dosage 80 g/ha
Method in brief: as §1

AVEFA = assay: Post-emergence herbicidal action against AVEFA; format: in vivo, Avena fatua; conditions: Avena fatua, 504 h, visual assessment about 3 weeks after treatment, 100% = plants have died, 0% = like control plants
Method in brief: as §1

MATIN [13] = assay: Pre-emergence herbicidal action against MATIN; format: in vivo, Matricaria inodora; conditions: Tripleurospermum inodorum, 504 h; for pest or weed control at 80 g/ha: dosage 80 g/ha; for pest or weed control at 20 g/ha: dosage 20 g/ha
Method in brief: as §2

VERPE [14] = assay: Post-emergence herbicidal action against VERPE; format: in vivo, Veronica persica; conditions: Veronica persica, 504 h
Method in brief: as §1

VIOTR [15] = assay: Pre-emergence herbicidal action against VIOTR; format: in vivo, Viola tricolor; conditions: Viola tricolor, 504 h; for pest or weed control at 80 g/ha: dosage 80 g/ha; for pest or weed control at 20 g/ha: dosage 20 g/ha
Method in brief: as §2

SETVI [16] = assay: Pre-emergence herbicidal action against SETVI; format: in vivo, Setaria viridis; conditions: Setaria viridis, 504 h; for pest or weed control at 80 g/ha: dosage 80 g/ha
Method in brief: as §2

ABUTH = assay: Pre-emergence herbicidal action against ABUTH; format: in vivo, Abutilon theophrasti; conditions: Abutilon theophrasti, 504 h; for pest or weed control at 80 g/ha: scored visually after 3 weeks vs untreated controls (100% = plants have died, 0% = like control plants); for pest or weed control at 20 g/ha: dosage 20 g/ha, scored visually after 3 weeks vs untreated controls, read-out: Pre-emergence action against ABUTH (herbicidal activity in percent)
Method in brief: as §2

ECHCG [17] = assay: Pre-emergence herbicidal action against ECHCG; format: in vivo, Echinochloa crus-galli; conditions: Echinochloa crus-galli, 504 h
Method in brief: as §2

PHBPU = assay: Post-emergence herbicidal action against PHBPU; format: in vivo, Pharbitis purpurea; conditions: Ipomoea purpurea, 504 h, dosage 20 g/ha
Method in brief: as §1

SETVI [18] = assay: Post-emergence herbicidal action against SETVI; format: in vivo, Setaria viridis; conditions: Setaria viridis, 504 h; for pest or weed control at 5 g/ha: dosage 5 g/ha; for pest or weed control at 20 g/ha: dosage 20 g/ha
Method in brief: as §1

[19] = 100% = plants have died, 0% = like control plants

CCNC(=O)c1c(C(F)F)ccc(C(=O)Nc2nnnn2C)c1Cl [Example 1-148]
80%: pest or weed control at 20 g/ha (ALOMY [1]) | pest or weed control at 20 g/ha (LOLRI [2]) | pest or weed control at 20 g/ha (ECHCG [6]) | pest or weed control at 80 g/ha (ECHCG [6]; dosage 80 g/ha) | pest or weed control at 320 g/ha (POLCO [7]; dosage 320 g/ha) | pest or weed control at 20 g/ha (VIOTR [9]) | pest or weed control at 80 g/ha (VERPE [10]) | pest or weed control at 80 g/ha (POLCO [12]) | pest or weed control at 20 g/ha (VERPE [14]) | pest or weed control at 80 g/ha (VERPE [14]; 80 g/ha)
100%: pest or weed control at 80 g/ha (STEME) | pest or weed control at 320 g/ha (STEME; dosage 320 g/ha) | pest or weed control at 20 g/ha (MATIN [4]) | pest or weed control at 80 g/ha (MATIN [4]; dosage 80 g/ha) | pest or weed control at 320 g/ha (HORMU [5]; 320 g/ha) | pest or weed control at 320 g/ha (VERPE [10]; dosage 320 g/ha) | pest or weed control at 320 g/ha (ALOMY [11]; 320 g/ha, scored visually after 3 weeks, 100% = plants have died, 0% = like control plants) | pest or weed control at 20 g/ha (AVEFA) | pest or weed control at 80 g/ha (AVEFA; 80 g/ha) | pest or weed control at 80 g/ha (MATIN [13]) | pest or weed control at 320 g/ha (MATIN [13]; dosage 320 g/ha) | pest or weed control at 80 g/ha (VIOTR [15]) | pest or weed control at 320 g/ha (VIOTR [15]; dosage 320 g/ha) | pest or weed control at 80 g/ha (SETVI [16]) | pest or weed control at 320 g/ha (SETVI [16]; dosage 320 g/ha) | pest or weed control at 80 g/ha (ABUTH) | pest or weed control at 320 g/ha (ABUTH; Dosage: 320 g/ha, scored visually after 3 weeks, 100% = plants have died, 0% = like control plants) | pest or weed control at 80 g/ha (ECHCG [17]) | pest or weed control at 320 g/ha (ECHCG [17]; 320 g/ha)
90%: pest or weed control at 20 g/ha (AMARE) | pest or weed control at 80 g/ha (AMARE; 80 g/ha) | pest or weed control at 80 g/ha (ALOMY [1]; dosage 80 g/ha) | pest or weed control at 80 g/ha (LOLRI [2]; dosage 80 g/ha) | pest or weed control at 320 g/ha (LOLRI [3]; 320 g/ha) | pest or weed control at 80 g/ha (HORMU [5]) | pest or weed control at 80 g/ha (HORMU [8]; dosage 80 g/ha) | pest or weed control at 80 g/ha (VIOTR [9]; 80 g/ha) | pest or weed control at 80 g/ha (ALOMY [11])

CCc1c(C(=O)Nc2nnnn2C)ccc(C(F)(F)F)c1C(=O)NC1CC1 [Example 1-273]
90%: pest or weed control at 20 g/ha (ECHCG [6]) | pest or weed control at 80 g/ha (POLCO [7]) | pest or weed control at 20 g/ha (HORMU [8]) | pest or weed control at 80 g/ha (VERPE [10]) | pest or weed control at 80 g/ha (ALOMY [11]) | pest or weed control at 20 g/ha (AVEFA) | pest or weed control at 20 g/ha (VERPE [14]) | pest or weed control at 20 g/ha (ECHCG [17])
100%: pest or weed control at 20 g/ha (AMARE) | pest or weed control at 20 g/ha (STEME) | pest or weed control at 80 g/ha (STEME) | pest or weed control at 20 g/ha (ALOMY [1]) | pest or weed control at 5 g/ha (MATIN [4]) | pest or weed control at 20 g/ha (MATIN [4]) | pest or weed control at 5 g/ha (VIOTR [9]) | pest or weed control at 20 g/ha (VIOTR [9]) | pest or weed control at 20 g/ha (SETVI [18]) | pest or weed control at 20 g/ha (MATIN [13]) | pest or weed control at 80 g/ha (MATIN [13]) | pest or weed control at 20 g/ha (VIOTR [15]) | pest or weed control at 80 g/ha (VIOTR [15]) | pest or weed control at 20 g/ha (SETVI [16]; dosage 20 g/ha) | pest or weed control at 80 g/ha (SETVI [16]) | pest or weed control at 80 g/ha (ABUTH) | pest or weed control at 20 g/ha (ABUTH; [19]) | pest or weed control at 80 g/ha (ECHCG [17])
80%: pest or weed control at 5 g/ha (ALOMY [1]) | pest or weed control at 20 g/ha (LOLRI [2]) | pest or weed control at 80 g/ha (LOLRI [3]) | pest or weed control at 80 g/ha (HORMU [5]) | pest or weed control at 5 g/ha (ECHCG [6]) | pest or weed control at 5 g/ha (HORMU [8]; dosage 5 g/ha) | pest or weed control at 20 g/ha (PHBPU) | pest or weed control at 5 g/ha (SETVI [18])

CCn1nnnc1NC(=O)c1ccc(C(F)(F)F)c(C(=O)NC2CC2)c1C [Example 2-27]
100%: pest or weed control at 20 g/ha (AMARE) | pest or weed control at 20 g/ha (STEME) | pest or weed control at 80 g/ha (STEME) | pest or weed control at 5 g/ha (MATIN [4]) | pest or weed control at 20 g/ha (MATIN [4]) | pest or weed control at 20 g/ha (ECHCG [6]) | pest or weed control at 80 g/ha (POLCO [7]) | pest or weed control at 5 g/ha (VIOTR [9]) | pest or weed control at 20 g/ha (VIOTR [9]) | pest or weed control at 80 g/ha (VERPE [10]) | pest or weed control at 80 g/ha (ALOMY [11]) | pest or weed control at 20 g/ha (AVEFA) | pest or weed control at 20 g/ha (SETVI [18]) | pest or weed control at 20 g/ha (MATIN [13]) | pest or weed control at 80 g/ha (MATIN [13]) | pest or weed control at 20 g/ha (VIOTR [15]) | pest or weed control at 80 g/ha (VIOTR [15]) | pest or weed control at 80 g/ha (SETVI [16]) | pest or weed control at 80 g/ha (ABUTH) | pest or weed control at 20 g/ha (ABUTH; [19]) | pest or weed control at 80 g/ha (ECHCG [17])
80%: pest or weed control at 5 g/ha (ALOMY [1]) | pest or weed control at 20 g/ha (LOLRI [2]) | pest or weed control at 80 g/ha (LOLRI [3]) | pest or weed control at 5 g/ha (ECHCG [6]) | pest or weed control at 20 g/ha (POLCO [7]; dosage 20 g/ha) | pest or weed control at 20 g/ha (VERPE [10]; dosage 20 g/ha) | pest or weed control at 5 g/ha (SETVI [18]) | pest or weed control at 20 g/ha (VERPE [14])
90%: pest or weed control at 20 g/ha (ALOMY [1]) | pest or weed control at 80 g/ha (HORMU [5]) | pest or weed control at 20 g/ha (HORMU [8]) | pest or weed control at 20 g/ha (PHBPU) | pest or weed control at 5 g/ha (AVEFA; 5 g/ha) | pest or weed control at 20 g/ha (ECHCG [17])
